Data taken from paper PMC7486399 (Nature Communications, 2020).
Several values for one entry are separate records, joined by “and”; a condition that tells them apart may be missing. Equal values may be shown once.

How the values were obtained:
A549 cells [1] = type: cell-based, human
A549-ACE2 cells [2] = type: cell-based, human
[3] = system: interaction between the S1 subunit and ACE2 receptor; assay: AFM competition binding: ACE2-derived peptides vs S1 subunit-ACE2 binding on model surface; conditions: for binding probability (BP) with peptide (Fig. 4b) / reduction in the BP (S1-ACE2 complex formation): 250 ms contact time; for binding probability (BP) with peptide (Fig. 4b): mean, N ≥ 3, 0 µM BP: 22-44 10.8724, 22-57 8.6263, 22-44-g-351-357 10.6771, 351-357 8.65885, PEG tip 2.60417; for delta binding (change of binding probability, Fig. 4c): vs 0 µM; for decrease in the BP on purified receptor: AFM on purified ACE2 receptor; for 50% inhibitory concentration (IC50): S1-ACE2 binding by AFM, estimated from 1, 10, 100 µM; for reduction in the BP (S1-ACE2 complex formation): concentration not printed in the sentence (tested 1, 10, 100 µM)
[4] = system: mixed culture of A549 and A549-ACE2 cells; type: cell-based, human; conditions: AFM
A549-ACE2 cells [5] = assay: AFM S1 binding probability on A549-ACE2 cells before and after [22-57] peptide; type: cell-based, human; conditions: for BP (Fig. 5a), 100 μM peptide: 100 μM [22–57]
A549 cells [6] = assay: AFM S1 binding probability on A549 cells before and after [22-57] peptide; type: cell-based, human; conditions: for BP (Fig. 5a), 100 μM peptide: A549 cells, 100 μM [22–57]
[7] = 1 µM peptide, ddH2O control 27.2772
[8] = 10 µM peptide, ddH2O control -35.4337
[9] = 100 µM peptide, ddH2O control -21.9737

With 9-O-acetyl-2-α-O-propargyl-SC [SA] the “binding probability + SA (Fig. 3f)” value (A549 cells [1]) was 4.4 and 4.6 and 7 and 7.2, the “binding frequency after SA injection” value (A549 cells [1]; A549 cells, 9-O-acetyl-sialogycans, 1 mM) was ~ 7% and the “binding probability + SA (Fig. 3f)” value (A549-ACE2 cells [2]) was 12.6 and 8.7 and 9 and 10.4. For the same substance, the “binding frequency after SA injection” value (A549-ACE2 cells [2]; […], 9-O-acetyl-sialogycans, 1 mM) was “≈ 10%”.

In the case of “[22–44–g–351–357]: ACE2-derived fragments 22–44 and 351–357 joined by a glycine residue (EEQAKTFLDKFNHEAEDLFYQSSGLGKGDFR)”, the “binding probability (BP) with peptide (Fig. 4b)” value (“binding probability (BP)” for short) ([3]; 1 µM peptide) is reported as 6.641, the “delta binding (change of binding probability, Fig. 4c)” value [3, 7] is reported as -45.2583 and the “binding probability (BP)” value ([3]; 10 µM peptide) is reported as 4.915. The “delta binding (change of binding probability, Fig. 4c)” value [3, 8] was -63.4203, the “binding probability (BP)” value ([3]; 100 µM peptide) was 4.655 and the “delta binding (change of binding probability, Fig. 4c)” value [3, 9] was -62.3402. The “binding inhibition, result in words” value ([3]; compared with the other peptides) was “we did not notice any strong improvement in the binding inhibition”.

In the case of “[351–357]: ACE2-derived peptide fragment 351–357, part of a hot binding spot (LGKGDFR; UniProt Q9BYF1 351-357, looked up, fragment)”, the “binding probability (BP)” value ([3]; 1 µM peptide) is reported as 5.599, the “delta binding (change of binding probability, Fig. 4c)” value [3, 7] is reported as -43.4556 and the “binding probability (BP)” value ([3]; 10 µM peptide) is reported as 6.3151. The “delta binding (change of binding probability, Fig. 4c)” value [3, 8] was -34.8403, the “binding probability (BP)” value ([3]; 100 µM peptide) was 5.339 and the “delta binding (change of binding probability, Fig. 4c)” value [3, 9] was -54.9815.

In the case of “[22–44]: ACE2-derived peptide fragment 22–44, N-terminal helix of ACE2 (sequence in Supplementary Fig. 9)”, the “decrease in the BP on living cells” value [4] is reported as greater than 70%, the “binding probability (BP)” value ([3]; 1 µM peptide) is reported as 6.934 and the “delta binding (change of binding probability, Fig. 4c)” value [3, 7] is reported as -48.3738. The “binding probability (BP)” value ([3]; 10 µM peptide) was 4.232, the “delta binding (change of binding probability, Fig. 4c)” value [3, 8] was -79.2642 and the “binding probability (BP)” value ([3]; 100 µM peptide) was 4.6224. For the same substance, the “delta binding (change of binding probability, Fig. 4c)” value [3, 9] was -75.9263, the “decrease in the BP on purified receptor” value [3] was greater than 70% and the “50% inhibitory concentration (IC50)” value [3] was “in the µM range”. The “reduction in the BP (S1-ACE2 complex formation)” value [3] was ~ 76%.

For “[22–57]: ACE2-derived peptide fragment 22–57, N-terminal helix of ACE2 (sequence in Supplementary Fig. 9)”, the “BP (Fig. 5a), 100 μM peptide” value (A549-ACE2 cells [5]; replicate 1 (0 μM: 17)) was 9.7, the “BP (Fig. 5a), 100 μM peptide” value (A549-ACE2 cells [5]; replicate 2 (0 μM: 15.7)) was 8.5 and the “BP (Fig. 5a), 100 μM peptide” value (A549-ACE2 cells [5]; replicate 3 (0 μM: 29)) was 4.4. The “BP (Fig. 5a), 100 μM peptide” value (A549-ACE2 cells [5]; replicate 4 (0 μM: 15.9)) was 10.1, the “BP level after peptide injection” value (A549-ACE2 cells [5]; 100 µM peptide) was “reaching a level close to the one of the control cells” and the “decrease in the BP on living cells” value [4] was greater than 70%. For the same substance, the “change of BP after peptide injection” value (A549 cells [6]; A549 cells (both cell types), 100 µM peptide) was “significant decrease of the BP on both cell types”, the “BP (Fig. 5a), 100 μM peptide” value (A549 cells [6]; replicate 1 (0 μM: 10.8)) was 4.3 and the “BP (Fig. 5a), 100 μM peptide” value (A549 cells [6]; replicate 2 (0 μM: 9.7)) was 4.1. For the same substance, the “BP (Fig. 5a), 100 μM peptide” value (A549 cells [6]; replicate 3 (0 μM: 7.7)) was 1.9, the “binding probability (BP)” value ([3]; 1 µM peptide) was 6.706 and the “delta binding (change of binding probability, Fig. 4c)” value [3, 7] was -31.3144. The “binding probability (BP)” value ([3]; 10 µM peptide) was 5.599, the “delta binding (change of binding probability, Fig. 4c)” value [3, 8] was -50.4102 and the “binding probability (BP)” value ([3]; 100 µM peptide) was 4.167. The “delta binding (change of binding probability, Fig. 4c)” value [3, 9] was -74.5041, the “decrease in the BP on purified receptor” value [3] was greater than 70% and the “50% inhibitory concentration (IC50)” value [3] was “in the µM range”. The “reduction in the BP (S1-ACE2 complex formation)” value [3] was ~ 74%.

cRGD was tested, and the “binding probability + RGD (Fig. 3f)” value (A549 cells [1]; S1 tip on A549 cells after cRGD, 500 μM, 37 °C, individual data points) was 13.1 and 7.8 and 10.6 and 9.5, the “reduction of the binding frequency after cRGD injection” value (A549-ACE2 cells [2]; A549-ACE2 cells, cRGD 500 μM) was 1–2% and the “binding probability + RGD (Fig. 3f)” value (A549-ACE2 cells [2]; S1 tip on A549-ACE2 cells after cRGD, 500 μM, 37 °C, individual data points) was 14.1 and 9.9 and 20.6 and 14.7.
